How the values were obtained:
[1] = log P by HPLC on reversed phase columns (Method L0)
Method: Measurement of log P values was performed according to EEC directive 79/831 Annex V.A8 by HPLC (High Performance Liquid Chromatography) on reversed phase columns with the following methods: • ^[a] log P value is determined by measurement of LC-UV, in an acidic range, with 0.1% formic acid in water and acetonitrile as eluent (linear gradient from 10% acetonitrile to 95% acetonitrile). • ^[b] log P value is determined by measurement of LC-UV, in a neutral range, with 0.001 molar ammonium acetate solution in water and acetonitrile as eluent (linear gradient from 10% acetonitrile to 95% acetonitrile).
Calibration was done with straight-chain alkan-2-ones (with 3 to 16 carbon atoms) with known log P values (measurement of log P values using retention times with linear interpolation between successive alkanones).

[2] = test system: Nippostrongylus brasiliensis; assay: In vitro assay 2: Nippostrongylus brasiliensis (NIPOBR), acetylcholine esterase readout; details: 1 μg/ml, read-out: activity (reduction of AChE compared to negative control)
Summary of the method: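 Readout was acetylcholine esterase activity released into the medium, compared with negative control, after exposing adult worms to compounds at final 10 ppm (10 μg/ml) or 1 ppm (1 μg/ml). Worms were first washed in antibiotic/amphotericin B-containing saline; compounds were dissolved in DMSO.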

[3] = test system: Dirofilaria immitis microfilariae; assay: In vitro assay 3: Dirofilaria immitis microfilariae (DIROIM L1), motility; details: 72 h, read-out: EC50 (reduction of motility), 72 h incubation
[4] = test system: Dirofilaria immitis third-stage larvae; assay: In vitro assay 4: Dirofilaria immitis (DIROIM L4), motility; details: 72 h, read-out: EC50 (reduction of motility)
Cooperia curticei = details: Cooperia curticei, 120 h, read-out: activity (larval mortality)
Method: In Vitro Assay 6: Cooperia curticei (COOPCU L3)
Solvent: dimethyl sulfoxide
Approximately 40 nematode larvae (Cooperia curticei) are transferred into a test tube containing the compound solution.
After 5 days percentage of larval mortality is recorded. 100% efficacy means all larvae are killed; 0% efficacy means no larvae are killed.

Haemonchus contortus = details: 120 h, read-out: activity (larval mortality)
Method: In Vitro Assay 7: Haemonchus contortus (HAEMCO L3)
Solvent: dimethyl sulfoxide
Approximately 40 larvae of the red stomach worm (Haemonchus contortus) are transferred into a test tube containing compound solution.
After 5 days the percentage of larval mortality is recorded. 100% efficacy means all larvae are killed, 0% efficacy means no larvae are killed.

C. elegans Slo-1a = C. elegans Slo-1a (Caenorhabditis elegans, UniProt Q95V25); details: pE50 (negative decadic logarithm of EC50), CHO cells expressing C. elegans Slo-1a, voltage sensitive dye
Sequence of C. elegans Slo-1a (Q95V25 whole entry): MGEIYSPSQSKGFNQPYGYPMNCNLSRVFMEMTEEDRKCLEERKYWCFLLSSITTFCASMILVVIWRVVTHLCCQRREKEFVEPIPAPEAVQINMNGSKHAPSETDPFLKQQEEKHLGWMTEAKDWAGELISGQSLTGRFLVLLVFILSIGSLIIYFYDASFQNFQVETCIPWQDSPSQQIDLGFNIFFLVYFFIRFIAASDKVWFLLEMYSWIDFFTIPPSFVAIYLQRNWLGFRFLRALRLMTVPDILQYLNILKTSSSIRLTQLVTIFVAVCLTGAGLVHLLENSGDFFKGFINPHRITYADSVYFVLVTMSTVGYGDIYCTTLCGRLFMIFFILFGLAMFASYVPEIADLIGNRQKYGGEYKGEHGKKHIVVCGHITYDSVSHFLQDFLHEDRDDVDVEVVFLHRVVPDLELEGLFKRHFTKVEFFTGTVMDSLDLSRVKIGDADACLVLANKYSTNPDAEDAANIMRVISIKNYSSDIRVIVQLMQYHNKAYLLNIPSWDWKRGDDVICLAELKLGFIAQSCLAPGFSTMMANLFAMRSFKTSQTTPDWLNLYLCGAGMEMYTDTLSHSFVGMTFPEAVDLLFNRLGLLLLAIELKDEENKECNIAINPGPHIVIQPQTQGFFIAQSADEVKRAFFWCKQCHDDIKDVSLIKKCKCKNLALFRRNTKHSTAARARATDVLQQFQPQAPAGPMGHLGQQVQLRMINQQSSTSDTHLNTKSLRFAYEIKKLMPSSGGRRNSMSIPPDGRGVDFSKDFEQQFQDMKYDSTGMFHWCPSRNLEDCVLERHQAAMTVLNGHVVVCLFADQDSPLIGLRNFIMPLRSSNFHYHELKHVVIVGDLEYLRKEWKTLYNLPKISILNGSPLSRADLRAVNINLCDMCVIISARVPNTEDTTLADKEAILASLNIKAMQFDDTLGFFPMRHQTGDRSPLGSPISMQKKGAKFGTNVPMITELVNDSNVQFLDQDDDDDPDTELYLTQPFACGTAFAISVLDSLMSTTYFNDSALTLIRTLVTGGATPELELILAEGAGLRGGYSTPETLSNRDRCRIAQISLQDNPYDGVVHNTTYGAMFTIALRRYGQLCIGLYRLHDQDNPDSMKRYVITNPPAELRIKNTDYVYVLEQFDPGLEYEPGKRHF
Method: In Vitro Assay 1: C. elegans Slo-1a—Action at a Recombinant C. elegans Cell Line
Cells were cultured at 37° C. and 5% CO2 in MEMalpha with Gutamax I (Invitrogen, Nr.: 32571), supplemented with 10% (v/v) heat inactivated fetal bovine serum (Invitrogen, Nr.: 10500), G418 (1 mg/ml, Invitrogen, Nr.: 10131). Cells were detached using Accutase (Sigma, Nr.: A6964).
Membrane Potential Measurements
Laboratory compound testing was performed on 384-well microtiter plates (MTPs, Greiner, Nr.: 781092). 8000 cells/well were plated onto 384-well MTPs and cultured for 20 to 24 hours at 37° C. and 5% CO2. After removal of the cell culture medium, the cells were washed once with tyrode (150 mM NaCl, 0.3 mM KCl, 2 mM CaCl2, 1 mM MgCl2, 0.8 mM NaH2PO4, 5 mM Glucose, 28 mM Hepes, pH 7.4) and then loaded with the voltage sensitive dye of the Membrane Potential Assay Kit diluted in tyrode for 1 h at room temperature.
After starting the measurement of fluorescence using a FLIPR Tetra (Molecular Devices, Exc. 510-545 nm, Emm. 565-625 nm), test compounds were added followed by the addition of KCl tyrode (final assay concentration: 70 mM KCl, 2 mM CaCl2, 1 mM MgCl2, 0.8 mM NaH2PO4, 5 mM Glucose, 28 mM Hepes, pH 7.4, including the voltage sensitive dye). The measurement was completed after 7 minutes.
The data were evaluated by using the ActivityBase XLfit software (IDBS) for curve fitting and calculation of the half-maximal effective concentration (EC50) and are reported as negative decadic logarithm (pE50).

[5] = acidic range, 0.1% formic acid in water / acetonitrile
[6] = HPLC on reversed phase columns, Method L0

Compound	logP (Method L0)[a] [1, 6]	inhibition at 1 µg/mL [2] [%]	EC50 [3] [µg/mL]	EC50 [4] [µg/mL]	mortality at 4 ppm (Cooperia curticei) [%]	mortality at 20 ppm (Cooperia curticei) [%]	mortality at 4 ppm (Haemonchus contortus) [%]	mortality at 20 ppm (Haemonchus contortus) [%]	EC50 (C. elegans Slo-1a) [nM]	other results
CCOC(=O)c1cnc2c(-c3cc(F)cc(F)c3F)cccc2c1N(C)C [Example 1U-5]	–	–	–	–	–	–	–	–	–	logP (Method L0)[a] [1, 5]: 2.40
CCOC(=O)c1cnc2c(-c3cc(Cl)cc(Cl)c3Cl)c(F)ccc2c1N(C)C [Example 1U-8]	–	–	–	–	–	–	–	–	–	logP (Method L0)[a] [1, 5]: 4.57
CCOC(=O)c1cnc2c(-c3cc(F)cc(F)c3F)c(F)ccc2c1N(C)C [Example 1U-11]	–	–	–	–	–	–	–	–	–	logP (Method L0)[a] [1, 5]: 2.40
CCOC(=O)c1cnc2c(-c3cc(Cl)cc(Cl)c3)cccc2c1N1CCOCC1 [Example 1U-13]	–	–	–	–	–	–	–	–	–	logP (Method L0)[a] [1, 5]: 5.19
CCOC(=O)c1cnc2c(-c3cccc(Cl)c3Cl)cccc2c1N1CCOCC1 [Example 1U-15]	–	–	–	–	–	–	–	–	–	logP (Method L0)[a] [1, 5]: 3.90
O=C(O)c1cnc2c(-c3cccc(Cl)c3Cl)cccc2c1N1CCOCC1 [Example 1W-15]	–	–	–	–	–	–	–	–	–	logP (Method L0)[a] [1, 5]: 1.86
CN(C)c1c(C(=O)N[C@H]2CCOc3ccccc32)cnc2c(-c3cc(Cl)cc(Cl)c3)cccc12 [Example 8]	2.53	–	–	–	–	–	–	–	–	–
Nc1c(C(=O)N[C@H]2CCOc3ccccc32)cnc2c(-c3cc(Cl)cc(Cl)c3)cccc12 [Example 58]	2.11	–	–	–	–	–	–	–	–	–
CN(C)CCNc1c(C(=O)N[C@H]2CCc3ccccc32)cnc2c(-c3cc(Cl)cc(Cl)c3)cccc12 [Example 88]	1.3	–	–	–	–	–	–	–	–	–
COCCNc1c(C(=O)N[C@H]2CCc3ccccc32)cnc2c(-c3cc(Cl)cc(Cl)c3)cccc12 [Example 89]	2.2	–	–	–	–	–	–	–	–	–
CCN(CCOC)c1c(C(=O)N[C@H]2CCc3ccccc32)cnc2c(-c3cc(Cl)cc(Cl)c3)cccc12 [Example 90]	4.9	–	–	–	–	–	–	–	–	–
COC[C@@H]1CCCN1c1c(C(=O)N[C@H]2CCc3ccccc32)cnc2c(-c3cc(Cl)cc(Cl)c3)cccc12 [Example 91]	2.9	–	–	–	–	–	–	–	–	–
COC[C@H]1CCCN1c1c(C(=O)N[C@H]2CCc3ccccc32)cnc2c(-c3cc(Cl)cc(Cl)c3)cccc12 [Example 92]	2.9	–	–	–	–	–	–	–	–	–
O=C(N[C@H]1CCc2ccccc21)c1cnc2c(-c3cc(Cl)cc(Cl)c3)cccc2c1NCCN1CCCC1 [Example 96]	1.4	–	–	–	–	–	–	–	–	–
O=C(N[C@H]1CCc2ccccc21)c1cnc2c(-c3cc(Cl)cc(Cl)c3)cccc2c1NCc1ccccn1 [Example 99-1]	2.2	–	–	–	–	–	–	–	–	–
CCC(CO)Nc1c(C(=O)NC2CCc3ccccc32)cnc2c(-c3cc(Cl)cc(Cl)c3)cccc12 (stereo not shown) [Example 99-2]	2.1	–	–	–	–	–	–	–	–	–
O=C(N[C@H]1CCc2ccccc21)c1cnc2c(-c3cc(Cl)cc(Cl)c3)cccc2c1NCCO [Example 100]	1.9	–	–	–	–	–	–	–	–	–
O=C(N[C@H]1CCc2ccccc21)c1cnc2c(-c3cc(Cl)cc(Cl)c3)cccc2c1N1CC[C@@H](O)C1 [Example 101]	1.8	–	–	–	–	–	–	–	–	–
CN(CC1CC1)c1c(C(=O)N[C@H]2CCc3ccccc32)cnc2c(-c3cc(Cl)cc(Cl)c3)cccc12 [Example 106]	3.7	–	–	–	–	–	–	–	–	–
O=C(N[C@H]1CCc2ccccc21)c1cnc2c(-c3cc(Cl)cc(Cl)c3)cccc2c1N1CCC(F)(F)C1 [Example 112]	2.6	–	–	–	–	–	–	–	–	–
CC(=O)N1CCN(c2c(C(=O)N[C@H]3CCc4ccccc43)cnc3c(-c4cc(Cl)cc(Cl)c4)cccc23)CC1 [Example 116]	3.4	–	–	–	–	–	–	–	–	–

Compound	logP (Method L0)[a] [1, 6]	inhibition at 1 µg/mL [2] [%]	EC50 [3] [µg/mL]	EC50 [4] [µg/mL]	mortality at 4 ppm (Cooperia curticei) [%]	mortality at 20 ppm (Cooperia curticei) [%]	mortality at 4 ppm (Haemonchus contortus) [%]	mortality at 20 ppm (Haemonchus contortus) [%]	EC50 (C. elegans Slo-1a) [nM]	other results
CN(C)C(=O)CCNc1c(C(=O)N[C@H]2CCc3ccccc32)cnc2c(-c3cc(Cl)cc(Cl)c3)cccc12 [Example 122]	2	–	–	–	–	–	–	–	–	–
O=C(N[C@H]1CCc2ccccc21)c1cnc2c(-c3cc(Cl)cc(Cl)c3)cccc2c1NCCn1cccn1 [Example 125]	2.1	–	–	–	–	–	–	–	–	–
C[C@H](Nc1c(C(=O)N[C@H]2CCc3ccccc32)cnc2c(-c3cc(Cl)cc(Cl)c3)cccc12)C(N)=O [Example 127]	1.9	–	–	–	–	–	–	–	–	–
COC(=O)CNc1c(C(=O)N[C@H]2CCc3ccccc32)cnc2c(-c3cc(Cl)cc(Cl)c3)cccc12 [Example 128]	2.1	–	–	–	–	–	–	–	–	–
NC(=O)CNc1c(C(=O)N[C@H]2CCc3ccccc32)cnc2c(-c3cc(Cl)cc(Cl)c3)cccc12 [Example 129]	1.8	–	–	–	–	–	–	–	–	–
O=C(N[C@H]1CCOc2ccccc21)c1cnc2c(-c3cc(Cl)cc(Cl)c3)cccc2c1Nc1ccncc1 [Example 136]	2.1	–	–	–	–	–	–	–	–	–
CN(CCO)c1c(C(=O)N[C@H]2CCOc3ccccc32)cnc2c(-c3cc(Cl)cc(Cl)c3)cccc12 [Example 138]	2.7	–	–	–	–	–	–	–	–	–
COc1ccc2c(c1)[C@@H](NC(=O)c1cnc3c(-c4cc(Cl)cc(Cl)c4)cccc3c1N(C)C)CCO2 [Example 147]	2.76	–	–	–	–	–	–	–	–	–
O=C(N[C@H]1CCOc2ccccc21)c1cnc2c(-c3cc(Cl)ccc3F)cccc2c1N1CCOCC1 [Example 221]	–	> 80	< 0.1	< 0.1	90	100	90	100	< 3.16	–
O=C(N[C@H]1CCOc2ccccc21)c1cnc2c(-c3cccc(Cl)c3F)cccc2c1N1CCOCC1 [Example 226]	–	> 80	< 0.1	< 0.1	100	100	90	100	< 3.16	–
O=C(N[C@H]1CCOc2ccccc21)c1cnc2c(-c3cc(Cl)cc(C(F)(F)F)c3)cccc2c1N1CCOCC1 [Example 235]	–	> 80	< 0.1	< 0.1	90	100	90	100	< 3.16	–
COC(=O)[C@H]1CCN(c2c(C(=O)N[C@H]3CCOc4ccccc43)cnc3c(-c4cc(Cl)cc(Cl)c4)cccc23)C1 [Example 281]	–	> 80	< 0.1	< 0.1	80	90	80	80	< 3.16	–
CN(C)c1c(C(=O)N[C@H]2CCOc3ccccc32)cnc2c(-c3cccc(Cl)c3Cl)c(F)ccc12 [Example 330]	–	> 80	< 0.1	< 0.1	90	90	100	100	< 3.16	–
O=C(N[C@H]1CCOc2ccccc21)c1cnc2c(-c3cc(Cl)cc(Cl)c3)cccc2c1N1CC[C@@H](C(=O)O)C1 [Example 332]	–	> 80	< 0.1	< 0.1	100	100	100	100	< 3.16	–
CC(C)c1c(C(=O)N[C@H]2CCOc3ccccc32)cnc2c(-c3cc(Cl)cc(Cl)c3)cccc12 [Example 359, 8-(3,5-dichlorophenyl)-N-[(4S)-3,4-dihydro-2H-chromen-4-yl]-4-isopropyl-quinoline-3-carboxamide]	–	> 80	< 0.1	< 0.1	100	100	100	100	< 3.16	–
CC(C)c1c(C(=O)N[C@H]2CCOc3ccccc32)cnc2c(-c3cccc(C(F)(F)F)c3F)cccc12 [Example 408]	–	> 80	< 0.1	< 0.1	100	100	90	90	< 3.16	–
CC(C)c1c(C(=O)N[C@H]2CCOc3ccccc32)cnc2c(-c3cccc(C(F)(F)F)c3)cccc12 [Example 411]	–	> 80	< 0.1	< 0.1	100	100	100	100	< 3.16	–
CN(C)c1c(C(=O)N[C@H]2CCOc3ccccc32)cnc2c(-c3cc(Cl)ncc3Cl)cccc12 [Example 415]	–	> 80	< 0.1	< 0.1	100	100	90	100	< 3.16	–
COc1ccc(-c2cc(Cl)cc(Cl)c2)c2ncc(C(=O)N[C@H]3CCOc4ccccc43)c(N(C)C)c12 [Example 504]	–	> 80	< 0.1	< 0.1	100	100	100	100	< 3.16	–
CCc1c(C(=O)N[C@H]2CCOc3ccccc32)cnc2c(-c3cc(Cl)cc(Cl)c3Cl)cccc12 [Example 573]	–	> 80	< 0.1	< 0.1	100	100	100	100	3.16 to 31.6	–
O=C(N[C@H]1CCOc2ccccc21)c1cnc2c(-c3cc(F)cc(F)c3F)cccc2c1C1COC1 [Example 660, N-[(4S)-3,4-dihydro-2H-chromen-4-yl]-4-(oxetan-3-yl)-8-(2,3,5-trifluorophenyl)quinoline-3-carboxamide]	–	> 80	< 0.1	< 0.1	100	100	100	100	< 3.16	–
